The test system of one assay is compound 48/80-induced lethality in rats. In words: Protection of rats from compound 48/80-induced lethality. Type of assay: in vivo, rat (male, inbred Wistar strain). Conditions: Rattus norvegicus, 4 h, male Wistar rats; s.c. or oral, one hour before 0.5 mg/kg i.v. compound 48/80; ED50 = dose protecting 50% of animals; survival after 4 hours; read-out: compound 48/80 lethality test in rats-ED50. An excerpt: Protection of rats from compound 48/80-induced lethality.
Compound 48/80, a mixture of oligomers obtained by condensation of 4-methoxy-N-methylbenzeneethanamine and formaldehyde has been described as a potent histamine releasing agent (Int. Arch. Allergy, 13, 336 (1958)). The protection from compound 48/80-induced lethal circulatory collapse appears to be a simple way of evaluating quantitatively the antihistaminic activity of test compounds. Male rats of an inbred Wistar strain, weighing 240-260 g were used in the experiment. After overnight starvation the rats were transferred to conditioned laboratories (temp.=21±1° C., relative humidity=65±5%). The rats were treated subcutaneously or orally with a test compound or with the solvent (NaCl solution, 0.9%). One hour after treatment there was injected intravenously compound 48/80, freshly dissolved in water, at a dose of 0.5 mg/kg (0.2 ml/100 g of body weight). In control experiments, wherein 250 solvent-treated animals were injected with the standard dose of compound 48/80, not more than 2.8% of the animals survived after 4 hours. Survival after 4 hours is therefore considered to be a safe criterion of a protective effect of drug administration.
Said ED50 -values are the values in mg/kg body weight at which the tested compounds protect 50% of the tested animals against compound 48/80-induced lethality.
Consider `Cl.Cl.O.O.c1coc(Cn2c(NC3CCN(CC4COc5ccccc5O4)CC3)nc3cncnc32)c1` (stereo not shown) [Compound 60, N-[1-[(2,3-dihydro-1,4-benzodioxin-2-yl)methyl]-4-piperidinyl]-9-(2-furanyl-methyl)-9H-purin-8-amine dihydrochloride dihydrate], for which the ED50 came to 0.08 mg/kg.

In the case of `Cc1ccc(Cn2c(NC3CCN(CC4COc5ccccc5O4)CC3)nc3cncnc32)o1` (stereo not shown) [Compound 61, N-[1-[(2,3-dihydro-1,4-benzodioxin-2-yl)methyl]-4-piperidinyl]-9-[(5-methyl-2-furanyl)methyl]-9H-purin-8-amine], the ED50 came to 0.01 mg/kg.

Regarding `COc1ccc(CCN2CCC(Cc3nc4ncnc(O)c4n3Cc3ccc(F)cc3)CC2)cc1` [Compound 62, 7-[(4-fluorophenyl)methyl]-8-[[1-[2-(4-methoxyphenyl)ethyl]-4-piperidinyl]methyl]-7H-purin-6-ol], the ED50 came out at 0.04 mg/kg.

Regarding `COc1ccc(CCN2CCC(Oc3nc4cncnc4n3Cc3ccc(F)cc3)CC2)cc1` [Compound 64], the ED50 was found to be 0.08 mg/kg.

In the case of `COc1ccc(CCN2CCC(Nc3nc4cncnc4n3Cc3ccccn3)CC2)cc1` [Compound 74, N-[1-[2-(4-methoxyphenyl)ethyl]-4-piperidinyl]-9-(2-pyridinylmethyl)-9H-purin-8-amine], the ED50 is 0.01 mg/kg.

Regarding `COc1ccc(CCN2CCC(Nc3nc4cncnc4n3Cc3ccc(F)cc3)CC2)cc1` [Compound 75], the ED50 is 0.08 mg/kg.

As for `COc1ccc(CCN2CCC(Nc3nc4cncnc4n3Cc3ccco3)CC2)cc1` [Compound 76], the ED50 came out at 0.02 mg/kg.

As for `COc1ccc(CCN2CCC(Nc3nc4cncnc4n3Cc3cccs3)CC2)cc1` [Compound 77], the ED50 was 0.02 mg/kg.

Turning to `COc1ccc(CCN2CCC(Nc3nc4ncncc4n3Cc3ccc(F)cc3)CC2)cc1` [Compound 78], the ED50 stood at 0.04 mg/kg.

`COc1ccc(CCN2CCC(Nc3nc4cncnc4n3Cc3ccc(C)o3)CC2)cc1` [Compound 79]: the ED50 is 0.04 mg/kg.

As to `COc1ccc(CCN2CCC(Nc3nc4cncnc4n3Cc3ccccc3)CC2)cc1` [Compound 83], the ED50 amounted to 0.08 mg/kg.

`Cc1nc2ccccn2c(=O)c1CCN1CCC(Nc2nc3cncnc3n2Cc2cnccn2)CC1` [Compound 87, 2-methyl-3-[2-[4-[[9-(2-pyrazinylmethyl)-9H-purin-8-yl]amino]-1-piperidinyl]-ethyl]-4H-pyrido[1,2-a]pyrimidin-4-one]: the ED50 was determined as 0.08 mg/kg.

Consider `Cc1nc2ccccn2c(=O)c1CCN1CCC(Nc2nc3cncnc3n2Cc2ccco2)CC1` [Compound 88], for which the ED50 is 0.02 mg/kg.

Take `Cc1nc2ccccn2c(=O)c1CCN1CCC(Nc2nc3cncnc3n2Cc2cccs2)CC1` [Compound 89]: the ED50 is 0.08 mg/kg.

As to `Cc1nc2ccccn2c(=O)c1CCN1CCC(Nc2nc3cncnc3n2Cc2ccccc2)CC1` [Compound 100], the ED50 worked out at 0.02 mg/kg.

Regarding `O=c1oc2ccccc2cc1CCN1CCC(Nc2nc3cncnc3n2Cc2ccco2)CC1` [Compound 104], the ED50 came out at 0.04 mg/kg.

For `O=c1oc2ccccc2cc1CCN1CCC(Nc2nc3cncnc3n2Cc2ccccn2)CC1` [Compound 106], the ED50 is 0.08 mg/kg.

As to `Cc1ccc(Cn2c(NC3CCN(CCc4cc5ccccc5oc4=O)CC3)nc3cncnc32)o1` [Compound 107], the ED50 came out at 0.02 mg/kg.

Take `O=C(O)/C=C/C(=O)O.O=C(O)/C=C/C(=O)O.O=c1[nH]c2ccccc2n1CCCN1CCC(Cc2nc3cncnc3n2Cc2ccc(F)cc2)CC1` [Compound 114, 1-[3-[4-[[9-[(4-fluorophenyl)methyl]-9H-purine-8-yl]methyl]-1-piperidinyl]-propyl]-1,3-dihydro-2H-benzimidazol-2-one (E)-2-butenedioate(1:2)]: the ED50 amounted to 0.04 mg/kg.

Turning to `O=c1[nH]c2ccccc2n1CCN1CCC(Nc2nc3cncnc3n2Cc2ccc(F)cc2)CC1` [Compound 115, 1-[2-[4-[[9-[(4-fluorophenyl)methyl]-9H-puri-8-yl]amino]-1-piperidinyl]ethyl]-1,3-dihydro-2H-benzimidazol-2-one], the ED50 turned out to be 0.08 mg/kg.

Regarding `Fc1ccc(Cn2c(NC3CCN(CCc4ccccn4)CC3)nc3cncnc32)cc1` [Compound 141, 9-[(4-fluorophenyl)methyl]-N-[1-[2-(2-pyridinyl)ethyl]-4-piperidinyl]-9H-purin-8-amine], the ED50 was determined as 0.01 mg/kg.

For `c1ccc(CCN2CCC(Nc3nc4cncnc4n3Cc3ccco3)CC2)nc1` [Compound 142, 9-(2-furanylmethyl)-N-[1-[2-(2-pyridinyl)ethyl]-4-piperidinyl]-9H-purin-8-amine], the ED50 amounted to 0.02 mg/kg.

On to `c1ccc(CCN2CCC(Nc3nc4cncnc4n3Cc3cccs3)CC2)nc1` [Compound 143, N-[1-[2-(2-pyridinyl)ethyl]-4-piperidinyl]-9-(2-thienylmethyl)-9H-purin-8-amine], for which the ED50 was found to be 0.02 mg/kg.

Take `c1ccc(CCN2CCC(Nc3nc4cncnc4n3Cc3ccccn3)CC2)nc1` [Compound 144, N-[1-[2-(2-pyridinyl)ethyl]-4-piperidinyl]-9-(2-pyridinylmethyl)-9H-purin-8-amine]: the ED50 was 0.04 mg/kg.

On to `Cc1ccc(Cn2c(NC3CCN(CCc4ccccn4)CC3)nc3cncnc32)o1` [Compound 145, 9-[(5-methyl-2-furanyl)methyl]-N-[1-[2-(2-pyridinyl)ethyl]-4a-piperidinyl]-9H-purin-8-amine], for which the ED50 was 0.01 mg/kg.

In the case of `c1cnc(NCCN2CCC(Nc3nc4cncnc4n3Cc3ccco3)CC2)nc1` [Compound 165], the ED50 was 0.02 mg/kg.

On to `c1cnc(NCCN2CCC(Nc3nc4cncnc4n3Cc3cccs3)CC2)nc1` [Compound 167], for which the ED50 was found to be 0.08 mg/kg.

`Cc1ccc(Cn2c(NC3CCN(CCNc4ncccn4)CC3)nc3cncnc32)o1` [Compound 168]: the ED50 turned out to be 0.02 mg/kg.

For `COc1ncnc2c1nc(CC1CCN(CCNc3ncccn3)CC1)n2Cc1ccc(F)cc1` [Compound 169], the ED50 is 0.08 mg/kg.

Regarding `Fc1ccc(Cn2c(CC3CCN(CCNc4ncccn4)CC3)nc3cncnc32)cc1` [Compound 171], the ED50 was 0.08 mg/kg.

Turning to `Fc1ccc(Cn2c(NC3CCN(CCNc4nccs4)CC3)nc3cncnc32)cc1` [Compound 172, 9-[(4-fluorophenyl)methyl]-N-[1-[2-(2-thiazolylamino)ethyl)-4-piperidinyl]-9H-purin-8-amine], the ED50 is 0.04 mg/kg.

For the compound `Fc1ccc(Cn2c(NC3CCN(CCNc4nc5cnccc5[nH]4)CC3)nc3cncnc32)cc1` [Compound 183, 9-[(4-fluorophenyl)methyl]-N-[1-[2-[(1H-imidazo[4,5-c]pyridin-2-yl)amino]ethyl]-4-piperidinyl]-9H-purin-8-amine (E)-2-butenedioate(1:3) monohydrate], the ED50 turned out to be 0.04 mg/kg.

The assay is the same for the next values; noted with them: male Wistar rats; s.c. or oral, one hour before 0.5 mg/kg i.v. compound 48/80; ED50 = dose protecting 50% of animals; survival after 4 hours.
As to “9-(2-furanylmethyl)-N-[1-[4-[(2-thiazolyl)amino]pentyl]-4-piperidinyl]-9H-purin-8-amine [Compound 173]”, the “compound 48/80 lethality test in rats-ED50” value is recorded as 0.08 mg/kg body weight.

The same assay, now with this note: male Wistar rats; s.c. or oral, one hour before 0.5 mg/kg i.v. compound 48/80; ED50 = dose protecting 50% of animals; survival after 4 hours; 240 min.
With `COc1ccc(CCN2CCC(Nc3nc4cncnc4n3Cc3ccc(F)cc3)CC2)cc1` [Compound 80], the “compound 48/80 lethality test in rats-ED50” value was found to be 0.04 mg/kg body weight.

These data come from patent publication US5041448A, “(4-piperidinylmethyl and -hetero) purines” (Janssen Pharmaceutica N.V., priority 1985, dated 1991).
